{"source": "patent US9326955B2", "about": "“Combination pharmaceuticals and methods thereof using proteinacious channels as treatments for medical conditions” (Loyola University Chicago, priority 2008, dated 2016)", "key": {"[1]": {"biological_target": "vascular L-type Ca^2+ channels (Homo sapiens, UniProt Q13936)", "sequence (Q13936 whole entry)": "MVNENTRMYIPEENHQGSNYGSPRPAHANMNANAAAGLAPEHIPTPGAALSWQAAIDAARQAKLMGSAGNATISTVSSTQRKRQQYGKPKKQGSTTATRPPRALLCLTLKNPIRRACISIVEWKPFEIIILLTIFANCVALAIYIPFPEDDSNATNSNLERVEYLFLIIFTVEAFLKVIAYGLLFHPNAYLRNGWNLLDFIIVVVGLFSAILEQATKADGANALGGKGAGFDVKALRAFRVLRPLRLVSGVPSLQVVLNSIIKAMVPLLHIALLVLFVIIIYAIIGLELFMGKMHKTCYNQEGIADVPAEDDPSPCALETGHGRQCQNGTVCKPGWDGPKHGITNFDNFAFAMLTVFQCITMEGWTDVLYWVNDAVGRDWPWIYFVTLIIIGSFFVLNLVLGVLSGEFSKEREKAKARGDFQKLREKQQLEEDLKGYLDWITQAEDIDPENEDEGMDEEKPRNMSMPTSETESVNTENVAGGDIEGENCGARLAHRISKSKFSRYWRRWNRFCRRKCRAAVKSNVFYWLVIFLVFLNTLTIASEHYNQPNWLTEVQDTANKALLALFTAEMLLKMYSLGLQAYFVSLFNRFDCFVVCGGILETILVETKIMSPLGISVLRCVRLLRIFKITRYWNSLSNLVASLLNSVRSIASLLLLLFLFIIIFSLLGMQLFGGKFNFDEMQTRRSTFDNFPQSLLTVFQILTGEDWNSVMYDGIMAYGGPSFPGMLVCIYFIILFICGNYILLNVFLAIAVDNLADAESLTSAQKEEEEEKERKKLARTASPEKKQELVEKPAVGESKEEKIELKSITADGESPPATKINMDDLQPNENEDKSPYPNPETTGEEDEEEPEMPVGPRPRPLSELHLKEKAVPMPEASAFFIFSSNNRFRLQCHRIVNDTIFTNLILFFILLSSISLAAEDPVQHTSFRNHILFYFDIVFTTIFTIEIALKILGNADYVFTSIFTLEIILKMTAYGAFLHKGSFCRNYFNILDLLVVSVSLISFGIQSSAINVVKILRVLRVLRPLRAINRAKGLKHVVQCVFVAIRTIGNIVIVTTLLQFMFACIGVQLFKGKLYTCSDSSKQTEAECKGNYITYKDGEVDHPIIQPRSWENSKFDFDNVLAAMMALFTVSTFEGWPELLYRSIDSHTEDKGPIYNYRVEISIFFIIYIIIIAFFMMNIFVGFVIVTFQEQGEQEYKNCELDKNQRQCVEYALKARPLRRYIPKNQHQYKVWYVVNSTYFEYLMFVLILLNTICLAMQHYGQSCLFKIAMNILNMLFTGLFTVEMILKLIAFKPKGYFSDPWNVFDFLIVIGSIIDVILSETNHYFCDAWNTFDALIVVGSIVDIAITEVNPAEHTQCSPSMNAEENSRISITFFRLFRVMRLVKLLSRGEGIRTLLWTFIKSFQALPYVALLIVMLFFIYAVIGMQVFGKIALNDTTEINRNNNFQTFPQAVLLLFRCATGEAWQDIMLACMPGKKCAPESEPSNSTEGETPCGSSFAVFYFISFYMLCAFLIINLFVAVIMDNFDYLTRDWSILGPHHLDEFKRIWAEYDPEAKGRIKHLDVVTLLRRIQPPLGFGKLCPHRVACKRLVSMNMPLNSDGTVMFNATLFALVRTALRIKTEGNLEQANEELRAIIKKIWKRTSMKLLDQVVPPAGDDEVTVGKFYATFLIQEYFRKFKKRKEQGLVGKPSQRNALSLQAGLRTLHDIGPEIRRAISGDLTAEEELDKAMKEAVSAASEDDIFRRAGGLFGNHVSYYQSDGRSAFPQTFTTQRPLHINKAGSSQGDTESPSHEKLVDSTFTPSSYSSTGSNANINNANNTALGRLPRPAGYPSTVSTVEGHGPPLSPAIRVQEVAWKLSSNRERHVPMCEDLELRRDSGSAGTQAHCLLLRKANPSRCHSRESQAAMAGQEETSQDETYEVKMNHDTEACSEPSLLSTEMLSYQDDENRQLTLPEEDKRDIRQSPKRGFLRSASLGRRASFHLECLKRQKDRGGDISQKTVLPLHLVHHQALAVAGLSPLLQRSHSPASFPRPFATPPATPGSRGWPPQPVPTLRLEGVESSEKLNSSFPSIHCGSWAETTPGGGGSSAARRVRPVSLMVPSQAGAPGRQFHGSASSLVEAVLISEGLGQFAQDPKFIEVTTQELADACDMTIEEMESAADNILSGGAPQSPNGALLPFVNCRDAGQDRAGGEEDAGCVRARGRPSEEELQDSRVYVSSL", "sequence (P54284 whole entry partner)": "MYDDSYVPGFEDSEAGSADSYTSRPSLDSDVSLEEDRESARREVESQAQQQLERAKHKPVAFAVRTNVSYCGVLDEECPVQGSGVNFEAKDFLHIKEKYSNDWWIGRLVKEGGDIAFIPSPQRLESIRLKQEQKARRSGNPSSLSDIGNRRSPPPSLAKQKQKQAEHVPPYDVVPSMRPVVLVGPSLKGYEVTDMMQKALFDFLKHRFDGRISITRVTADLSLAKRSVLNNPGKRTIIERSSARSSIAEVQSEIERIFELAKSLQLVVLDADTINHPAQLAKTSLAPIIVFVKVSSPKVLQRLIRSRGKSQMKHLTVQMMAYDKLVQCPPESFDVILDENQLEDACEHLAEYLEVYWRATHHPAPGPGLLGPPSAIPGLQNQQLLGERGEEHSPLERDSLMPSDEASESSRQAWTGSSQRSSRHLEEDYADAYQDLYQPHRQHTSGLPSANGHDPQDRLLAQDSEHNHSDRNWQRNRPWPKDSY", "sequence (P54289 25-956 partner limits assumed)": "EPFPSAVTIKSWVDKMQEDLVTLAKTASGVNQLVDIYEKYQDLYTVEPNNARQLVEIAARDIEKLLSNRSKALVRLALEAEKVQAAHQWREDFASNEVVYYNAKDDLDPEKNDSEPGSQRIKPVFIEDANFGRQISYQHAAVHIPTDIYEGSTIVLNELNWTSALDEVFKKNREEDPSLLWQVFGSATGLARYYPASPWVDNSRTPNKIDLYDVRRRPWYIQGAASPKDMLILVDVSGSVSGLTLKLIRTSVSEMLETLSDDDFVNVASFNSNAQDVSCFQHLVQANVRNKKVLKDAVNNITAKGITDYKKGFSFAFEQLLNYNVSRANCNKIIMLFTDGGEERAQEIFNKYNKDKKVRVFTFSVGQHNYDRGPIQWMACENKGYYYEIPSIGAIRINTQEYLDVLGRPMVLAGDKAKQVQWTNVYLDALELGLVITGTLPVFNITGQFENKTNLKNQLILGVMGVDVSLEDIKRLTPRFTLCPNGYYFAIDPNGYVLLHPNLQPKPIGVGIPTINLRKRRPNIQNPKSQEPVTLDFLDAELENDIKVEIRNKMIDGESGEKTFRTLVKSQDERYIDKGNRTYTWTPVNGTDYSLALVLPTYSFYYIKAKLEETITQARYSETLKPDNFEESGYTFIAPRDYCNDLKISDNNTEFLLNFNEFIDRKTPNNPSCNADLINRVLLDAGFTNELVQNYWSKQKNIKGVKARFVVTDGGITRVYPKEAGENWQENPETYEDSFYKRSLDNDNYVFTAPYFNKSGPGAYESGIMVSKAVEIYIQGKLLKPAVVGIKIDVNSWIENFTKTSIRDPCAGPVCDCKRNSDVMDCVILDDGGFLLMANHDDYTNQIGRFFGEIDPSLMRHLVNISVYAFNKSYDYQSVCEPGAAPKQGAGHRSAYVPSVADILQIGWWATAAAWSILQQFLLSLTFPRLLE", "sequence (P54289 957-1103 partner limits assumed)": "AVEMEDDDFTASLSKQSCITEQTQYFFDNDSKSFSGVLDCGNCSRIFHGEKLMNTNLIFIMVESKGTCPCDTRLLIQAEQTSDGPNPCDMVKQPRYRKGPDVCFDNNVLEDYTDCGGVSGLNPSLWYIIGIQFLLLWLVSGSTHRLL", "conditions": "vascular smooth muscle cells", "protocol": "The activities were measured for two types of ion channels that are perhaps the most important in determining the contractile state of vascular smooth muscle cells: potassium (K^+) channels, which determine the resting membrane voltage, and voltage-sensitive calcium (Ca^2+) channels (VSCC), the activation of which allows Ca^2+ influx and vasoconstriction. […] The actions of these drugs can be assessed at the level of isolated arterial myocytes and intact pressurized arteries."}, "vascular Kv7 channels": {"system": "vascular Kv7 channels", "experiment": "Electrophysiology of Kv7 currents in vascular smooth muscle cells", "assay_type": "cell-based, rat and human", "conditions": "for effect on vascular Kv7 channels: vascular smooth muscle cells", "method": "The scope of the present invention further encompasses the tools used to measure vascular Kv7 channel activities and/or functional contributions of these channels in vascular smooth muscle cells. […] For example, flupirtine is a known Kv7 channel activator used to treat pain; plasma concentrations achieved clinically can be as high as about 12 μM with a 100 mg dose (Abrams et al., “Pharmacokinetics of flupirtine in elderly volunteers and in patients with moderate renal impairment,” Postgraduate Medical Journal, 64: 361-363 (1988)) and doses up to about 600 mg are routinely given to treat chronic pain. […] Further indications to support such predictions may be obtained by measuring the effects of drugs on constriction/dilation of pressurized arteries."}, "KCNQ channels": {"system": "KCNQ channels", "experiment": "Patch-clamp of KCNQ currents in rat airway myocytes (ASMCs)", "assay_type": "cell-based", "method": "An investigation relating to these aspects of the invention was conducted to determine whether KCNQ (Kv7) K^+ channels are expressed and functional in rat airway myocytes. To accomplish this, a combination of real time polymerase chain reaction (RT-PCR) and patch-clamp electrophysiology was used. Isolation of rat ASMCs from bronchial strips for the patch-clamp electrophysiology as well as RNA isolation from rat trachea for the RT-PCR were performed using methods as described in Brueggemann et al., “KCNQ (Kv7) potassium channel activators as bronchodilators: combination with a β2-adrenergic agonist enhances relaxation of rat airways,” Am J Physiol Lung Cell Mol Physiol (in press), incorporated herein by reference.\nTherefore K^+ currents in enzymatically dispersed rat airway myocytes were measured using patch-clamp electrophysiology.\nAfter 10 minutes of MeCh treatment, the time course recording was interrupted for 10 minutes for measurement of steady-state I-V relationship (time break indicated by vertical gray lines). Then, after an additional one minute recording at −20 mV holding voltage, retigabine (10 μM) was applied in the presence of MeCh for 5 minutes. The time course recording was interrupted again for ten minutes for measurement of steady-state I-V relationship and, after an additional one minute time course recording, XE991 (1 μM) was applied in the presence of MeCh and retigabine for ten minutes.\nThe investigation examined whether the bronchorelaxant effects of long-acting β2-adrenergic receptor agonist, formoterol, were mediated via activation of KCNQ channels in rat airway myocytes. […] The time course recording was interrupted for 10 minutes for measurement of steady-state I-V relationship (time break indicated by vertical gray lines). After an additional 5 minutes recording, retigabine (10 μM) was applied in the continued presence of formoterol. The time course recording was interrupted again for 10 minutes for recording of steady-state I-V curves, and, after an additional 5 minutes recording, XE991 (1 μM) was applied in the presence of retigabine."}, "[2]": {"conditions": "compared with celecoxib; cited from earlier work"}, "[3]": {"system": "rat bronchioles in precision-cut lung slices (PCLS)", "experiment": "Airway constriction/relaxation in rat precision-cut lung slices (PCLS)", "conditions": "for bronchorelaxant action when XE991 is included: with XE991 10 μM", "method": "Another investigation was performed to investigate the ability of KCNQ channel activators to attenuate MeCh-induced concentration-dependent constriction of rat bronchioles in precision-cut lung slices (PCLS). The PCLS were prepared using methods described by Brueggemann et al., “KCNQ (Kv7) potassium channel activators as bronchodilators: combination with a β2-adrenergic agonist enhances relaxation of rat airways,” Am J Physiol Lung Cell Mol Physiol (in press). PCLS were superfused with increasing concentrations of MeCh in the range from 100 nM to 1 μM. Each concentration was applied for thirty minutes, followed by a forty-five minute washout prior to application of the next MeCh concentration (FIG. 12A,B). […] Percent of airway constriction, relative to the cross-sectional area measured before the initial MeCh treatment, was calculated for each MeCh concentration and plotted against concentration of MeCh.\nBronchorelaxant effects were further assessed by measuring the extent of bronchoconstriction when MeCh was applied in the absence or presence of different structurally unrelated KCNQ channel activators (or vehicle).\nFIG. 13C is a representative time course of changes in lumenal area of a small airway in rat PCLS on application of 230 nM MeCh (thirty minutes) followed by application of 230 nM MeCh in the presence of 10 nM formoterol (FF, thirty minutes). Dashed vertical lines marked “max” and “final” indicate 1 minute time intervals where the maximum or final relaxation was measured relative to the MeCh-induced constriction (measured during the last minute of MeCh alone). FIG. 13D is a representative time course of changes in lumenal area of a small airway treated as in panel C, except that 10 μM retigabine was included with the formoterol treatment (“FF+R,” thirty minutes).\nThe amount of desensitization for each concentration of formoterol in the absence and presence of 10 μM retigabine was estimated by subtraction of final relaxation (after thirty-minute treatment) from maximal relaxation.\nTo further investigate the desensitization to formoterol in rat PCLS, formoterol (10 nM) was applied twice, at a 90 minute interval, to airways constricted repetitively with 230 nM MeCh."}, "Kv7 channels": {"system": "Kv7 channels", "experiment": "Perforated patch clamp of Kv7 currents in freshly isolated guinea pig ASMCs", "assay_type": "cell-based", "protocol": "Another investigation relating to this aspect of the invention was directed to investigating Kv7 currents in freshly dissociated guinea pig ASMCs. […] 197-218 (1992), ASMCs were isolated from guinea pig bronchioles by enzymatic digestion and whole cell perforated patch clamp electrophysiology was used to record Kv7 currents. Kv7 currents were recorded in isolation from other ionic currents by including 100 μM gadolinium chloride in the external solution and applying relatively long (about five second) voltage steps, during which many other classes of channels inactivate."}, "[4]": {"conditions": "randomized clinical trials / clinical studies; cited from earlier work"}, "[5]": {"conditions": "100 mg dose; cited from earlier work"}, "human PCLS": {"system": "human PCLS", "experiment": "Airway relaxation in human PCLS from an asthmatic lung", "conditions": "30 pM alone, thirty-minute treatment (H1+F)", "description": "FIG. 15A is a representative recording of airway area from a PCLS derived from an asthmatic human lung."}, "Sprague-Dawley rats": {"system": "Sprague-Dawley rats", "experiment": "Mean arterial pressure and mesenteric vascular resistance in anesthetized instrumented rats", "assay_type": "in vivo, rat"}, "[6]": {"system": "ovalbumin-sensitized guinea pigs", "experiment": "Aerosolized ovalbumin challenge with inhaled retigabine in guinea pigs", "conditions": "thirty-minute exposure with ovalbumin, doses up to 1 mM", "protocol": "To assess the feasibility of inhalational therapy with a Kv7 channel activator, an investigation was conducted to assess the ability of retigabine to exert a therapeutic anti-bronchospastic benefit in vivo. […] This model involves a series of three intraperitoneal injections of ovalbumin (OA) or saline (as control) over a one week period, followed by a two-week sensitization period, and finally challenge with aerosolized ovalbumin.\nIn the investigation, two saline-control and two ovalbumin-sensitized animals were exposed to aerosolized ovalbumin on three consecutive days, but in this case the ovalbumin treatment was administered with varying doses of retigabine on consecutive days."}, "[7]": {"conditions": "10 nM, 230 nM MeCh (FIG. 14A,C)"}, "[8]": {"conditions": "10 nM, 90 minute interval (FIG. 14A,C)"}, "[9]": {"conditions": "formoterol 10 nM alone (FIG. 14B,D)"}}, "note": "“Also recorded” adds a separate entry of the source. Read-outs that look alike come from different tables or passages of the source.", "data": [{"compound": "Cc1ccc(C)c(-c2cc(C(F)(F)F)nn2-c2ccc(S(N)(=O)=O)cc2)c1", "note": "[2,5-dimethyl-celecoxib]", "values": [{"measurement": "effect on vascular L-type Ca^2+ channels", "setting": "[1]", "value": "inhibitor"}, {"measurement": "effect on vascular Kv7 channels", "setting": "vascular Kv7 channels", "value": "potent activator"}, {"measurement": "effect on KCNQ currents at −20 mV holding voltage", "setting": "KCNQ channels; rat ASMCs, 10 μM", "value": "effective as an activator"}, {"measurement": "anti-cancer activity", "setting": "[2]", "value": "stronger anti-cancer activity than celecoxib itself"}, {"measurement": "reduction of MeCh-induced airway constriction", "setting": "[3]; 10 μM, 230 nM MeCh", "value": 23, "unit": "%"}, {"measurement": "bronchorelaxant action when XE991 is included", "setting": "[3]", "value": "not significantly reduced"}]}, {"compound": "O=C1c2ccccc2C(Cc2ccncc2)(Cc2ccncc2)c2ccccc21", "note": "[XE991]", "values": [{"measurement": "effect on ASMC Kv7 currents", "setting": "Kv7 channels; celecoxib 10 μM at −20 mV", "value": "complete suppression"}, {"measurement": "effect on KCNQ currents in the presence of retigabine", "setting": "KCNQ channels; 1 μM, subsequent application after retigabine (with MeCh or formoterol)", "value": "completely abolished; also recorded: effectively abolished"}, {"measurement": "effect on KCNQ currents at −20 mV holding voltage", "setting": "KCNQ channels; rat ASMCs, 10 μM", "value": "inhibited"}]}, {"compound": "Cc1ccc(-c2cc(C(F)(F)F)nn2-c2ccc(S(N)(=O)=O)cc2)cc1", "note": "[celecoxib]", "values": [{"measurement": "risk of cardiovascular (CV) events", "setting": "[4]", "value": "failed to demonstrate an increased CV risk"}]}, {"compound": "O=C(O)Cc1ccccc1Nc1c(Cl)cccc1Cl", "note": "[diclofenac]", "values": [{"measurement": "effect on vascular Kv7 channels", "setting": "vascular Kv7 channels", "value": "pronounced effects"}, {"measurement": "risk of cardiovascular (CV) events", "setting": "[4]", "value": "significantly increased the risk of cardiovascular (CV) events"}]}, {"compound": "CCOC(=O)Nc1ccc(NCc2ccc(F)cc2)nc1N", "note": "[flupirtine]", "values": [{"measurement": "increase of vascular Kv7 current", "setting": "vascular Kv7 channels; 10 μM", "value": 100, "unit": "%"}, {"measurement": "plasma concentration achieved clinically", "setting": "[5]", "value": "about 12 μM"}]}, {"compound": "COc1ccc(C[C@@H](C)NC[C@H](O)c2ccc(O)c(NC=O)c2)cc1.COc1ccc(C[C@@H](C)NC[C@H](O)c2ccc(O)c(NC=O)c2)cc1.O=C(O)/C=C/C(=O)O", "note": "[formoterol, formoterol fumarate]", "values": [{"measurement": "relaxation of histamine-constricted asthmatic human airway", "setting": "human PCLS", "value": 18, "unit": "%"}, {"measurement": "effect on KCNQ currents at −20 mV holding voltage", "setting": "KCNQ channels; rat ASMCs, 10 nM", "value": "did not enhance KCNQ currents"}, {"measurement": "final relaxation after thirty minutes, first application", "setting": "[3]; [7]", "value": "46±14", "unit": "%"}, {"measurement": "peak relaxation, first application", "setting": "[3]; [7]", "value": "68±10", "unit": "%"}, {"measurement": "final relaxation, second application", "setting": "[3]; [8]", "value": "32±6", "unit": "%"}, {"measurement": "peak relaxation, second application", "setting": "[3]; [8]", "value": "48±8", "unit": "%"}, {"measurement": "maximum relaxation of airways constricted with MeCh", "setting": "[3]; at 1 μM, 230 nM MeCh", "value": "72±5", "unit": "%"}, {"measurement": "time course of relaxation response", "setting": "[3]; concentrations greater than or equal to 10 nM", "value": "noticeable time-dependent decline in the relaxation response"}, {"measurement": "final relaxation, acute exposure of the same slices", "setting": "[3]; [9]", "value": "34±6", "unit": "%"}, {"measurement": "peak relaxation, acute exposure of the same slices", "setting": "[3]; [9]", "value": "59±4", "unit": "%"}]}, {"compound": "NCCc1c[nH]cn1", "note": "[histamine]", "values": [{"measurement": "effect on ASMC Kv7 currents", "setting": "Kv7 channels; 30 μM", "value": "significantly suppressed"}]}, {"compound": "CC(C)NCC(O)c1ccc(O)c(O)c1", "note": "(stereo not shown) [isoproterenol]", "values": [{"measurement": "effect on KCNQ currents at −20 mV holding voltage", "setting": "KCNQ channels; rat ASMCs, 100 nM", "value": "ineffective in enhancement of KCNQ currents"}]}, {"compound": "O=C1N(c2ccccc2)c2ccccc2C1(Cc1ccncc1)Cc1ccncc1", "note": "[linopirdine]", "values": [{"measurement": "effect on ASMC Kv7 currents", "setting": "Kv7 channels; celecoxib 10 μM at −20 mV", "value": "complete suppression"}, {"measurement": "mean arterial pressure (MAP)", "setting": "Sprague-Dawley rats", "value": "opposite effects"}, {"measurement": "mesenteric vascular resistance (MVR)", "setting": "Sprague-Dawley rats", "value": "opposite effects"}]}, {"compound": "CC(=O)OC(C)C[N+](C)(C)C", "note": "(stereo not shown) [methacholine]", "values": [{"measurement": "effect on ASMC Kv7 currents", "setting": "Kv7 channels; 100 nM, −20 mV", "value": "completely suppressed"}, {"measurement": "reduction of KCNQ currents at −20 mV", "setting": "KCNQ channels; rat ASMCs, 230 nM, n=7", "value": "55.1±6.2", "unit": "%"}, {"measurement": "EC50", "setting": "[3]; rat PCLS, 100 nM to 1 μM, Hill fit, n=5, read-out: EC50 of airway constriction", "value": "248 ± 49", "unit": "nM"}, {"measurement": "Hill coefficient of airway constriction", "setting": "[3]; rat PCLS, n=5", "value": "1.6±0.2"}, {"measurement": "maximal constriction", "setting": "[3]; rat PCLS, n=5", "value": "81±7", "unit": "%"}]}, {"compound": "CCOC(=O)Nc1ccc(NCc2ccc(F)cc2)cc1N", "note": "[retigabine]", "values": [{"measurement": "effect on saline control animals", "setting": "[6]", "value": "no apparent effect"}, {"measurement": "reduction of MeCh-induced airway constriction", "setting": "[3]; 10 μM, 230 nM MeCh", "value": "about 31%"}, {"measurement": "relaxation when applied alone", "setting": "[3]; 10 μM, 230 nM MeCh", "value": "45.7±4.9", "unit": "%"}, {"measurement": "EC50", "setting": "[3]; Rattus norvegicus, read-out: EC50 of relaxation of pre-constricted airways", "value": "3600 ± 300", "unit": "nM"}, {"measurement": "maximum relaxation", "setting": "[3]; pre-constricted thirty minutes with 230 nM MeCh", "value": "61±9", "unit": "%"}]}, {"compound": "CS(=O)(=O)c1ccc(C2=C(c3ccccc3)C(=O)OC2)cc1", "note": "[rofecoxib]", "values": [{"measurement": "effect on vascular L-type Ca^2+ channels", "setting": "[1]", "value": "does not exhibit either effect"}, {"measurement": "effect on vascular Kv7 channels", "setting": "vascular Kv7 channels", "value": "does not exhibit either effect"}, {"measurement": "risk of cardiovascular (CV) events", "setting": "[4]", "value": "significantly increased the risk of cardiovascular (CV) events"}]}, {"compound": "zinc pyrithione", "values": [{"measurement": "effect on KCNQ currents at −20 mV holding voltage", "setting": "KCNQ channels; rat ASMCs, 100 nM", "value": "enhanced"}, {"measurement": "threshold of KCNQ channel activation", "setting": "KCNQ channels; voltage step protocol, retigabine 10 μM, ZnPyr 100 nM", "value": "shifted the threshold of channel activation to more negative voltages"}, {"measurement": "reduction of MeCh-induced airway constriction", "setting": "[3]; 1 μM, 230 nM MeCh, relative to vehicle", "value": 21, "unit": "%"}, {"measurement": "bronchorelaxant action when XE991 is included", "setting": "[3]", "value": "suppressed or prevented"}]}]}
